Our source for the EC50 values is ChEMBL document CHEMBL1158233, “Cytotoxic Cembranoids from the Soft Corals Sinularia gibberosa and Sarcophyton trocheliophorum” (1996).

Converted amounts (≈) assume the structure as drawn.

Assay type in all cases: functional
The test system of assay [1] is P388. Description: Cytotoxicity against mouse P388 cells after 3 days by MTT assay. As to conditions: P388, 72 h, read-out: ED50 (the source's name).
The subject of assay [2] is HT-29. Description: Cytotoxicity against human HT29 cells after 6 days by MTT assay. As to conditions: HT-29, 144 h, read-out: ED50 (the source's name).
Assay [3] concerns KB. Description: Cytotoxicity against human KB cells after 3 days by MTT assay. The note with it: 72 h, read-out: ED50 (the source's name).
Assay [4] deals with A549. Description: Cytotoxicity against human A549 cells after 6 days by MTT assay. As to conditions: A549, 144 h, read-out: ED50 (the source's name).

For the compound `CC1=C2CC/C(C)=C/CC[C@]3(C)O[C@H]3CC/C(C)=C/[C@@H]2OC1=O` [SARCOPHINE], the EC50 in assay [1] is 2.42 µg/mL (≈ 7.65 µM); in assay [2], 10.5 µg/mL (≈ 33.1 µM); in assay [3], more than 50 µg/mL; in assay [4] it was 10.4 µg/mL (≈ 32.8 µM).
For `CC1=C2CC/C(C)=C/CC[C@]3(C)O[C@H]3CC/C(C)=C/[C@@H]2OC1`, in that order: 3.87 µg/mL (≈ 12.8 µM), 16.1 µg/mL (≈ 53.1 µM), more than 50 µg/mL and 15.7 µg/mL (≈ 52 µM).
For `CC1=C2CC/C(C)=C/CC[C@@](C)(O)[C@@H](O)CC/C(C)=C/[C@@H]2OC1=O`, in that order: 3.27 µg/mL (≈ 9.78 µM), 22.9 µg/mL (≈ 68.4 µM), more than 50 µg/mL and 24.7 µg/mL (≈ 73.7 µM).
As to `C/C1=C\CCC(C)(O)C2C=C(C(C)(C)O)C(C/C(C)=C/CC1)O2` (stereo not drawn), the EC50 was 0.23 µg/mL (≈ 0.718 µM) in assay [1], 1.81 µg/mL (≈ 5.65 µM) in assay [2], 17.1 µg/mL (≈ 53.4 µM) in assay [3] and 1.7 µg/mL (≈ 5.3 µM) in assay [4].
For `COC(C)(C)/C1=C/[C@H]2O[C@]2(C)CC/C=C(\C)CC[C@H]2O[C@]2(C)CC1`, in that order: 3.26 µg/mL (≈ 9.75 µM), 0.36 µg/mL (≈ 1.08 µM), more than 50 µg/mL and more than 50 µg/mL.
Turning to `C/C1=C\C=C(\C(C)(C)O)CC[C@@]2(C)O[C@@H]2CC/C(C)=C/CC1`, the EC50 was 0.01 µg/mL (≈ 0.0328 µM) in assay [1], 0.64 µg/mL (≈ 2.1 µM) in assay [2], 0.63 µg/mL (≈ 2.07 µM) in assay [3] and 1.03 µg/mL (≈ 3.38 µM) in assay [4].
For `C/C1=C\C=C(\C(C)(C)O)C(O)C/C(C)=C/CC/C(C)=C/CC1` (stereo not drawn), the EC50 amounted to 1.54 µg/mL (≈ 5.06 µM) in assay [1], 0.29 µg/mL (≈ 0.952 µM) in assay [2], 14.9 µg/mL (≈ 49 µM) in assay [3] and 20.2 µg/mL (≈ 66.2 µM) in assay [4].
